Legend:
[1] = tested on: MDA-MB-231 cells; assay: 3D anchorage-independent growth (mammosphere formation) assay; format: cell-based, human; conditions: for Mammosphere formation inhibition compared to Bedaquiline (FIG. 12): 0.5 μM to 10 μM, all concentrations tested; for Mammosphere formation inhibition at the higher concentrations (FIG. 12): higher concentrations of 0.5 μM to 10 μM range
Method: One-way ANOVA, Dunnett's multiple comparisons test, **p<0.005, ***p<0.0005.
3D Anchorage Independent Growth Assay: This assay is also referred to as the mammosphere formation assay. A single-cell suspension was prepared using enzymatic, and manual disaggregation (25-g needle). Then, cells were plated at a density of 500 cells/cm^2 in mammosphere medium (DMEM-F12+1× B-27 Plus Supplement+20 ng/ml EGF+Pen/Strep) under non-adherent conditions, in culture dishes pre-coated with (2-hydroxyethylmethacrylate) (poly-HEMA, Sigma Aldrich Inc.), called “mammosphere plates.” Cells were grown for 5 days and maintained in a humidified incubator at 37° C. After 5 days of culture, 3D-mammospheres >50 μm were counted using an eye piece (“graticule”), and the percentage of cells plated which formed spheres was calculated and is referred to as percent mammosphere formation, and was normalized to one (1=100% MFE). 3D mammosphere formation efficiency (MFE) was analyzed in both the ATP-low and ATP-high sub-populations of cells. All 3D mammosphere experiments were performed in triplicate, at least 3 times independently.

[2] = tested on: MDA-MB-231 cells; assay: ATP assay using BioTracker ATP-Red 1 (mitochondrial ATP levels); format: cell-based; conditions: Homo sapiens, 120 hours of treatment, read-out: Maximal inhibition of mitochondrial ATP production
Method: FIG. 7 compares the fold-change of BioTracker ATP-Red (signal mean) between the control and MDA-MB-231 cells treated with Bedaquiline. […] The data in FIG. 7 based on two-way ANOVA, Sidak's multiple comparisons test, *p<0.05, **p<0.005, ***p<0.0005, ****p<0.0001.
ATP assay using BioTracker ATP-Red 1: Cells were stained with BioTracker ATP-Red 1 after various treatments. After 30 minutes of incubation, the cells were washed twice with DPBS, collected and dissociated into a single-cell suspension with a 40 μm cell strainer. The cells were analyzed using the Attune NxT Flow Cytometer. Means of the signal (at 570 nm) were compared.

[3] = tested on: MDA-MB-231 cells; assay: 2D monolayer growth; format: cell-based, human; conditions: 10 μM, time-dependent
Method: (§1) FIGS. 8A and 8B show monolayer growth of MDA-MB-231 and MCF10A cells, respectively, treated with 10 μM Bedaquiline over time. […] Unpaired t-test *p<0.05, **p<0.005.
(§2) Reagents and Model Cell Lines: It should be apparent that other cell lines may be used without departing from the present approach. BioTracker ATP-Red 1 (#SCT045) was obtained commercially from Merck-Millipore, Inc. The triple-negative human breast cancer cell line, MDA-MB-231, was obtained from the American Type Culture Collection (ATCC). MCF10A cells, a non-tumorigenic human breast epithelial cell line, were also obtained from ATCC. MDA-MB-231 cells were cultured in DMEM (High Glucose) supplemented with 10% Fetal Bovine Serum (FBS, Sigma Aldrich), 2 mM Glutamax (Gibco, Life Technologies, Waltham, MA, USA), and 1% penicillin/streptomycin (Gibco, Life Technologies). The MCF10A cell line was maintained in a mammary epithelial cell growth medium (MEGM; Lonza, Basel, Switzerland) supplemented with 0.4% Bovine pituitary extract (BPE), 0.1% insulin, 0.1% hEGF, 0.1% Hydrocortisone, 0.1% GA-1000, and 100 ng/ml of cholera toxin. All cell lines were cultured at 37° C. in 5% CO2 in a humidified atmosphere.

[4] = tested on: MCF10A cells; assay: 2D monolayer growth, non-tumorigenic control cells; format: cell-based; conditions: 10 μM, normal control human mammary epithelial cell line
Method: as §1, §2

[5] = tested on: MDA-MB-231 cells; assay: Cell cycle analysis by FACS; format: cell-based, human
Method: There is a 2-fold reduction of MDA-MB-231 cells in S-phase and a concomitant 2-fold increase in the sub-G0-G1 population, after 120 hours of treatment. Two-way ANOVA, Sidak's multiple comparisons test, ns=not significant, ***p<0.0005. FIGS. 9C and 9D show representative FACS tracings for the control and for cells treated with Bedaquiline, respectively.
FIGS. 10A-10C show cell cycle populations for MDA-MB-231 cells treated with Bedaquiline (1 and 10 μM) or vehicle alone, after 48, 72 and 120 hours, respectively. Cell cycle analysis was performed using FACS. […] However, at 72 and 120 hours, a decrease in the S-phase population and a concomitant increase in the sub-G0-G1 population can be seen in FIGS. 10B and 10C. Two-way ANOVA, Sidak's multiple comparisons test, ns=not significant, *p<0.01, **p<0.001, ***p<0.0005.
Cell Cycle Analysis by FACS: Cell-cycle analysis was performed on the ATP-high and ATP-low cell sub-populations, by FACS analysis using the Attune NxT Flow Cytometer. Briefly, after trypsinization, the re-suspended cells were incubated with propidium iodide, as per the manufacturer's recommendations (Merck Millipore, Inc.). At least 25,000 events were analyzed per condition. Gated cells were categorized into cell-cycle stages.

[6] = tested on: MDA-MB-231 cells; assay: Cell migration assay (Transwells); format: cell-based; conditions: Homo sapiens, 32 hours then 16 hours in Transwells
Method: MDA-MB-231 cells were cultured in presence of Bedaquiline (10 μM) for 32 hours and moved to the Transwells for 16 hours in presence of Bedaquiline (10 μM). Unpaired t-test, **p<0.005.
Cell Migration Assays: Briefly, 3.5×10^4 cells in 0.5 ml of serum-free DMEM with 0.1% BSA were added to the wells of 8-μm pore, non-coated membrane modified Boyden chambers (Transwells). The lower chambers contained 10% fetal bovine serum in DMEM to serve as a chemo-attractant. Cells were incubated at 37° C. and allowed to migrate throughout the course of 16 hours. Noninvasive cells were removed from the upper surface of the membrane by scrubbing with cotton swabs. Chambers were stained in 0.5% crystal violet diluted in 100% methanol for 30-60 min, rinsed in water and examined under a bright-field microscope. Values for invasion and migration were obtained by counting five fields per membrane (20× objective) and represent the average of three independent experiments.

[7] = tested on: MDA-MB-231 cells; assay: Live cell/dead cell analysis by FACS; format: cell-based, human; conditions: 1 and 10 μM
Method: FIGS. 10D-10F show the results of live cell/dead cell analysis. MDA-MB-231 cells were treated with Bedaquiline (1 and 10 μM) or vehicle alone, for 48, 72 and 120 hours, and then subjected to live/dead analysis by FACS. […] However, at 72 and 120 hours (FIGS. 10E and 10F), a decrease in the live cell population and an increase in the dead cell population can be seen. […] Two-way ANOVA, Sidak's multiple comparisons test, ns=not significant, *p<0.01, **p<0.001, ***p<0.0005.

[8] = tested on: MDA-MB-231 cells; assay: CAM assay: tumor growth and spontaneous metastasis; format: in vivo, chicken; conditions: daily for 8 days
Method: (§3) Next, to test in vivo activity, the well-established CAM assay was used with MDA-MB-231 cells, to measure the effect of Bedaquiline effects on tumor growth, spontaneous metastasis and embryo toxicity. FIG. 11A illustrates the timeline for the CAM assay. An inoculum of 1×10^6 MDA-MB-231 cells was added onto the CAM of each egg (day E9) and then eggs were randomized into groups. On day E10, tumors were detectable and they were then treated daily for 8 days with vehicle alone (1% DMSO in PBS) or Bedaquiline. After 8 days of drug administration, on day E18, all tumors were weighed, and the lower CAM was collected to evaluate the number of metastatic cells, as analyzed by qPCR with specific primers for Human Alu sequences. Before each drug administration, treatment tolerability was evaluated by scoring the number of live and dead chicken embryos.
(§4) Tumor Growth, Metastasis and Embryo Toxicity Assays: Xenograft assays were carried out by INOVOTION (Société: 811310127), La Tronche-France. […] For tumor growth assays, at least 14 tumor samples were collected and analysed per group (N≥14). […] Genomic DNA was extracted from the CAM (commercial kit) and analyzed by qPCR with specific primers for Human Alu sequences. […] Before each administration, the treatment tolerability was evaluated by scoring the number of live and dead embryos.

[9] = tested on: chicken embryos; assay: CAM assay: embryo toxicity; format: in vivo; conditions: all concentrations tested, daily for 8 days
Method: as §3, §4

[10] = tested on: p21; assay: Western blot analysis of p21 protein expression; conditions: 0.1, 1 and 10 μM, 120 hours
[11] = tested on: PARP; assay: Western blot analysis of PARP protein expression; conditions: 0.1, 1 and 10 μM, 120 hours
[12] = target: ATP5F1C (Homo sapiens, UniProt P36542); conditions: 0.1, 1 and 10 μM; 24, 48, 72 and 120 hours; relative to vehicle (DMSO)

`COc1nc2ccc(CCCCOC(=O)CCCCC[P+](c3ccccc3)(c3ccccc3)c3ccccc3)cc2cc1[C@@H](c1ccccc1)[C@@](O)(CCN(C)C)c1cccc2ccccc12.[Cl-]` [structure [3B], [6-[4-[3-[(1R,2S)-4-(dimethylamino)-2-hydroxy-2-(1-naphthyl)-1-phenyl-butyl]-2-methoxy-6-quinolyl]butoxy]-6-oxo-hexyl]-triphenyl-phosphonium; chloride] was tested, and the “Mammosphere formation inhibition compared to Bedaquiline (FIG. 12)” value [1] was “more potent than unconjugated Bedaquiline” and the “Mammosphere formation inhibition at the higher concentrations (FIG. 12)” value [1] was “exceptional mammosphere formation inhibition”.

In the case of `COc1nc2ccc(CCCCOC(=O)CCCCCCCCCCC[P+](c3ccccc3)(c3ccccc3)c3ccccc3)cc2cc1[C@@H](c1ccccc1)[C@@](O)(CCN(C)C)c1cccc2ccccc12.[Br-]` [structure [2B]], the “Mammosphere formation inhibition compared to Bedaquiline (FIG. 12)” value [1] is reported as “more potent than unconjugated Bedaquiline” and the “Mammosphere formation inhibition at the higher concentrations (FIG. 12)” value [1] is reported as “exceptional mammosphere formation inhibition”.

In the case of `COc1nc2ccc(Br)cc2cc1[C@@H](c1ccccc1)[C@@](O)(CCN(C)C)c1cccc2ccccc12` [Bedaquiline, (1R,2S)-1-(6-bromo-2-methoxyquinolin-3-yl)-4-(dimethylamino)-2-naphthalen-1-yl-1-phenylbutan-2-ol], the inhibition at 10 µM [2] is reported as 75%, the 2D monolayer growth [3] is reported as “effectively inhibits 2D growth” and the 2D monolayer growth [4] is reported as “No effect was observed”. For the same molecule, the inhibition at 10 µM ([1]; Homo sapiens, MDA-MB-231, 10 μM) was about 65%, the S-phase population ([5]; 1 and 10 μM, 72 and 120 hours) was “decrease” and the sub-G0-G1 population ([5]; 1 and 10 μM, 72 and 120 hours) was “increase”. The Cell cycle populations ([5]; 1 and 10 μM, 48 hours) was “No effects were detectable”, the “Increase in the sub-G0-G1 population” value ([5]; after 120 hours of treatment) was 2 fold and the “Reduction of cells in S-phase” value ([5]; after 120 hours of treatment) was 2 fold. The inhibition at 10 µM [6] was about 50%, the “Apoptotic cell population (early or late)” value ([7]; 72 and 120 hours) was “no increase” and the Dead cell population ([7]; 72 and 120 hours) was “increase”. For the same molecule, the Live cell population ([7]; 72 and 120 hours) was “decrease”, the Live/dead cell populations ([7]; 48 hours) was “No effects were detectable” and the “Inhibition of spontaneous metastasis” value ([8]; 120 μM treatment, qPCR Human Alu in lower CAM) was 84%. The “Effect on tumor growth (average tumor weight)” value ([8]; day E18) was “no statistically significant effect”, the “Toxicity for chick embryos (egg survival)” value [9] was “not toxic” and the p21 protein expression [10] was “decreased in a concentration-dependent manner”. The PARP protein expression [11] was “decreased in a concentration-dependent manner” and the ATP5F1C protein expression [12] was “down-regulated”.
